Earlier results, collected in patent US8167920B2, “Intranasal delivery of compounds that reduce intrancranial pressure” (Codman & Shurtleff, Inc., priority 2006, dated 2012).

Assays:
[1] = test system: mesenteries (lymphatic pump); settings: 15 minutes superfusion of 30 uM into the mesenteries
[2] = test system: rat mesenteric lymphatics

Compound	increase in lymphatic pump flow index [1]	inhibition of the active lymph pump [2]
COC(=O)[C@@H](N)CCCNC(=N)N[N+](=O)[O-] [L-NAME]	~40%	–
OO [hydrogen peroxide]	–	intense inhibition
